Source: ChEMBL document CHEMBL1143276, “Synthesis and antimicrobial activities of halogenated bis(hydroxyphenyl)methanes” (2009)
Converted amounts (≈) assume the structure as drawn.

Columns and labels:
[1] = system: Staphylococcus aureus; assay: Antibacterial activity against Staphylococcus aureus ATCC 6538p after 24 hrs; type: functional
[2] = system: Bacillus subtilis; assay: Antibacterial activity against Bacillus subtilis ATCC 6633 after 24 hrs; type: functional; details: ATCC 6633, 24 h
[3] = system: Aspergillus fumigatus; assay: Antifungal activity against Aspergillus fumigatus HIC 6094 after 48 to 72 hrs; type: functional
[4] = system: Candida albicans; assay: Antifungal activity against Candida albicans ATCC 10231 after 48 to 72 hrs; type: functional
[5] = system: Micrococcus luteus; assay: Antibacterial activity against Micrococcus luteus […] after 24 hrs; type: functional
[6] = system: Trichophyton rubrum; assay: Antifungal activity against Trichophyton rubrum IFO 9185 after 48 to 72 hrs; type: functional
[7] = system: Trichophyton mentagrophytes; assay: Antifungal activity against Trichophyton mentagrophytes IFO 40996 after 48 to 72 hrs; type: functional
[8] = system: Escherichia coli; assay: Antibacterial activity against Escherichia coli ATCC 25922 after 24 hrs; type: functional; details: ATCC 25922, 24 h
[9] = system: Salmonella typhimurium; assay: Antibacterial activity against Salmonella Typhimurium ATCC 14028 after 24 hrs; type: functional, Salmonella enterica subsp. enterica serovar Typhimurium; details: Salmonella enterica, ATCC 14028, 24 h
[10] = system: Proteus vulgaris; assay: Antibacterial activity against Proteus vulgaris ATCC 3851 after 24 hrs; type: functional; details: ATCC 3851, 24 h

MIC [1] [µg/mL] | MIC [2] [µg/mL] | MIC [3] [µg/mL] | MIC [4] [µg/mL] | MIC [5] [µg/mL] | MIC [6] [µg/mL] | MIC [7] [µg/mL] | MIC [8] [µg/mL] | MIC [9] [µg/mL] | MIC [10] [µg/mL] | Compound
1.56 (≈ 3.02 µM) | 1.56 (≈ 3.02 µM) | > 100 | > 100 | 1.56 (≈ 3.02 µM) | > 100 | > 100 | > 100 | 3.12 (≈ 6.05 µM) | 1.56 (≈ 3.02 µM) | Oc1c(Br)cc(Br)cc1Cc1cc(Br)cc(Br)c1O
25 (≈ 45.6 µM) | 25 (≈ 45.6 µM) | 12.5 (≈ 22.8 µM) | 25 (≈ 45.6 µM) | 25 (≈ 45.6 µM) | 12.5 (≈ 22.8 µM) | 1.56 (≈ 2.85 µM) | 50 (≈ 91.3 µM) | 25 (≈ 45.6 µM) | 25 (≈ 45.6 µM) | Oc1cc(Cc2cc(O)c(O)c(Br)c2Br)c(Br)c(Br)c1O
0.78 (≈ 2.31 µM) | 1.56 (≈ 4.62 µM) | > 100 | 100 (≈ 296 µM) | 0.78 (≈ 2.31 µM) | > 100 | 12.5 (≈ 37 µM) | > 100 | 3.12 (≈ 9.23 µM) | 0.78 (≈ 2.31 µM) | Oc1c(Cl)cc(Cl)cc1Cc1cc(Cl)cc(Cl)c1O
12.5 (≈ 37.3 µM) | 25 (≈ 74.5 µM) | > 100 | 100 (≈ 298 µM) | 12.5 (≈ 37.3 µM) | > 100 | 25 (≈ 74.5 µM) | 100 (≈ 298 µM) | 25 (≈ 74.5 µM) | 25 (≈ 74.5 µM) | Oc1cc(Cl)c(Cc2cc(O)c(O)c(Cl)c2Cl)cc1O
25 (≈ 67.6 µM) | 25 (≈ 67.6 µM) | 50 (≈ 135 µM) | 50 (≈ 135 µM) | 25 (≈ 67.6 µM) | 50 (≈ 135 µM) | 3.12 (≈ 8.43 µM) | 50 (≈ 135 µM) | 25 (≈ 67.6 µM) | 25 (≈ 67.6 µM) | Oc1cc(Cc2cc(O)c(O)c(Cl)c2Cl)c(Cl)c(Cl)c1O
25 (≈ 107 µM) | 25 (≈ 107 µM) | 50 (≈ 213 µM) | 50 (≈ 213 µM) | 25 (≈ 107 µM) | 50 (≈ 213 µM) | 6.25 (≈ 26.6 µM) | 50 (≈ 213 µM) | 25 (≈ 107 µM) | 25 (≈ 107 µM) | Oc1ccccc1Cc1cc(Cl)ccc1O
25 (≈ 64.1 µM) | 25 (≈ 64.1 µM) | > 100 | > 100 | 12.5 (≈ 32 µM) | > 100 | 50 (≈ 128 µM) | > 100 | 25 (≈ 64.1 µM) | 25 (≈ 64.1 µM) | Oc1cc(Br)c(Cc2cc(O)c(O)cc2Br)cc1O
25 (≈ 39.9 µM) | 25 (≈ 39.9 µM) | 3.12 (≈ 4.98 µM) | 6.25 (≈ 9.97 µM) | 25 (≈ 39.9 µM) | 1.56 (≈ 2.49 µM) | 1.56 (≈ 2.49 µM) | 50 (≈ 79.8 µM) | 25 (≈ 39.9 µM) | 12.5 (≈ 19.9 µM) | Oc1cc(Cc2c(Br)c(O)c(O)c(Br)c2Br)c(Br)c(Br)c1O
> 100 | > 100 | > 100 | > 100 | 100 (≈ 375 µM) | > 100 | > 100 | > 100 | > 100 | > 100 | Oc1ccc(Cc2cc(O)c(O)cc2Cl)cc1O
50 (≈ 166 µM) | 50 (≈ 166 µM) | > 100 | > 100 | 25 (≈ 83 µM) | > 100 | 50 (≈ 166 µM) | > 100 | 50 (≈ 166 µM) | 50 (≈ 166 µM) | Oc1cc(Cl)c(Cc2cc(O)c(O)cc2Cl)cc1O
50 (≈ 213 µM) | 100 (≈ 426 µM) | 100 (≈ 426 µM) | 50 (≈ 213 µM) | 50 (≈ 213 µM) | 100 (≈ 426 µM) | 12.5 (≈ 53.3 µM) | 100 (≈ 426 µM) | 100 (≈ 426 µM) | 100 (≈ 426 µM) | Oc1ccccc1Cc1cccc(Cl)c1O
> 100 | > 100 | > 100 | > 100 | 100 (≈ 321 µM) | > 100 | > 100 | > 100 | > 100 | > 100 | Oc1ccc(Cc2cc(O)c(O)cc2Br)cc1O
> 100 | > 100 | > 100 | > 100 | > 100 | > 100 | > 100 | > 100 | > 100 | > 100 | Brc1cc2c(cc1Cc1cc3c(cc1Br)OCO3)OCO2

Compound | MIC [1] [µg/mL] | MIC [2] [µg/mL] | MIC [3] [µg/mL] | MIC [4] [µg/mL] | MIC [5] [µg/mL] | MIC [6] [µg/mL] | MIC [7] [µg/mL] | MIC [8] [µg/mL] | MIC [9] [µg/mL] | MIC [10] [µg/mL]
C[C@@H]1[C@H](O)[C@@H](C)/C=C/C=C/C=C/C=C/C=C/C=C/C=C/[C@H](O[C@@H]2O[C@H](C)[C@@H](O)[C@H](N)[C@@H]2O)C[C@@H]2O[C@](O)(C[C@@H](O)C[C@@H](O)[C@H](O)CC[C@@H](O)C[C@@H](O)CC(=O)O[C@H]1C)C[C@H](O)[C@H]2C(=O)O [AMPHOTERICIN B] |  |  | 3.12 (≈ 3.38 µM) | 6.25 (≈ 6.76 µM) |  | 3.12 (≈ 3.38 µM) | 3.12 (≈ 3.38 µM) |  |  | 
CC1(C)S[C@@H]2[C@H](NC(=O)[C@H](N)c3ccccc3)C(=O)N2[C@H]1C(=O)O [AMPICILLIN] | 1.56 (≈ 4.46 µM) | 1.56 (≈ 4.46 µM) |  |  | 1.56 (≈ 4.46 µM) |  |  | 12.5 (≈ 35.8 µM) | 3.12 (≈ 8.93 µM) | 3.12 (≈ 8.93 µM)
Oc1ccc(Cl)cc1Cc1cc(Cl)ccc1O [DICHLOROPHEN] | 12.5 (≈ 46.4 µM) | 12.5 (≈ 46.4 µM) | 50 (≈ 186 µM) | 25 (≈ 92.9 µM) | 12.5 (≈ 46.4 µM) | 50 (≈ 186 µM) | 12.5 (≈ 46.4 µM) | 100 (≈ 372 µM) | 6.25 (≈ 23.2 µM) | 12.5 (≈ 46.4 µM)
